{
  "source": "paper PMC3422893",
  "about": "(Journal of medicinal chemistry, 2011)",
  "key": {"SAPK/JNK": {"test_system": "SAPK/JNK", "experiment": "Western blot of SAPK/JNK pathway activation in H1703 cells", "type": "cell-based, human"}, "H1703 xenograft tumors": {"test_system": "H1703 xenograft tumors", "experiment": "H&E staining and immunohistochemistry of xenograft tumors", "type": "in vivo, athymic NCr-nu/nu mice"}, "ATF3": {"test_system": "ATF3", "experiment": "Western blot of ATF3 protein in H1703 cells", "type": "cell-based, human"}, "PARP": {"test_system": "PARP", "experiment": "Western blot of PARP cleavage", "type": "cell-based, human", "settings": "H1703 cells, 1 µM, 1, 4, or 6 h"}, "H1703 cells": {"test_system": "H1703 cells", "experiment": "H1703 non-small cell lung cancer xenograft model", "type": "in vivo, athymic NCr-nu/nu mice", "settings": "three times a week for 3 weeks"}},
  "data": [
    {"smiles": "O=S(=O)(O)c1cc(O)c(O)c(S(=O)(=O)O)c1", "note": "[Tiron, reference compound]", "values": [
      {"measurement": "effect on SAPK/JNK phosphorylation resulting from 1 or 2", "setting": "SAPK/JNK; pretreatment 10 mM for 1 h, then 30-min incubation with 1 or 2", "result": "attenuated SAPK/JNK phosphorylation"}
    ]},
    {"smiles": "CCOC(=O)N1CCN(/[N+]([O-])=N/Oc2ccc([N+](=O)[O-])cc2[N+](=O)[O-])CC1", "note": "[Compound 1, O^2-(2,4-dinitrophenyl) 1-[(4-ethoxycarbonyl)piperazin-1-yl]diazen-1-ium-1,2-diolate]", "values": [
      {"measurement": "ATF3 protein level in tumors, immunohistochemistry", "setting": "H1703 xenograft tumors; 6 µmol/kg i.v.", "result": "upregulation in ATF3 protein level"},
      {"measurement": "P-SAPK/JNK in tumors, immunohistochemistry", "setting": "H1703 xenograft tumors; 6 µmol/kg i.v.", "result": "phosphorylation of SAPK/JNK"},
      {"measurement": "tissue death in tumors, H&E staining", "setting": "H1703 xenograft tumors; 6 µmol/kg i.v.", "result": "significant tissue death"},
      {"measurement": "ATF3 protein expression", "setting": "ATF3; 1 µM", "result": "induced"},
      {"measurement": "SAPK/JNK activation (phosphorylation)", "setting": "SAPK/JNK", "result": "caused SAPK/JNK activation"},
      {"measurement": "time to detection of SAPK/JNK phosphorylation", "setting": "SAPK/JNK; 1 µM", "result": "≤ 30", "unit": "min"},
      {"measurement": "cleavage of PARP", "setting": "PARP", "result": "resulted in cleavage of PARP"},
      {"measurement": "growth of H1703 cells in vivo", "setting": "H1703 cells; 6 µmol/kg i.v.", "result": "significantly reduced growth"}
    ]},
    {"smiles": "CCOC(=O)N1CCN(/[N+]([O-])=N/Oc2cc(C)c([N+](=O)[O-])cc2[N+](=O)[O-])CC1", "note": "[Compound 6, O^2-(2,4-Dinitro-5-methylphenyl) 1-[(4-Ethoxycarbonyl)piperazin-1-yl]diazen-1-ium-1,2-diolate]", "values": [
      {"measurement": "ATF3 protein level in tumors, immunohistochemistry", "setting": "H1703 xenograft tumors; 8 µmol/kg i.v.", "result": "comparable to that of the control"},
      {"measurement": "P-SAPK/JNK in tumors, immunohistochemistry", "setting": "H1703 xenograft tumors; 8 µmol/kg i.v.", "result": "did not stain for P-SAPK/JNK"},
      {"measurement": "growth of H1703 cells in vivo", "setting": "H1703 cells; 8 µmol/kg i.v.", "result": "did not result in reduction in H1703 tumor growth in vivo"}
    ]},
    {"smiles": "O=C1c2ccccc2-c2n[nH]c3cccc1c23", "note": "[1,9-pyrazoloanthrone, reference compound]", "values": [
      {"measurement": "effect on 1-induced ATF3 upregulation", "setting": "ATF3; pretreatment 50 µM, 30 min", "result": "partially blocked"},
      {"measurement": "effect on 1-induced activation of ATF2 and c-jun", "setting": "SAPK/JNK; pretreatment 50 µM, 30 min", "result": "inhibited"}
    ]}
  ]
}
